Data on four compounds can be found in US20080096903A1, “SULFAMOYL-CONTAINING DERIVATIVES AND USES THEREOF” (Wyeth, priority 2006, published 2008).

For data set [1], the target named is Hsp90α Protein (Homo sapiens, UniProt P07900). The data set is described as follows: Hsp90 CE Competitive Binding Assay (displacement of fluorescein-labelled geldanamycin). The method, then:
Hsp90 CE Competitive Binding Assay: […]
b) “Competitor”, fluorescein-labelled geldanamycin • The competitor was synthesized as described by Llauger-Bufi et al, Bioorg.
The electrophoresis running buffer (RB) is comprised of 200 mM CAPSO, pH 9.2 (pH-adjusted with Trizma base). The sample buffer (SB) is comprised of 10 mM Trizma base, pH 8.0 (pH-adjusted with glacial acetic acid), 5 mM MgCl2, 5 mM DTT, and BSA and Triton as noted.
Capillary electrophoresis was performed on Cetek Gemini Systems™ using laser-induced fluorescence detection. Fused-silica capillaries (50 μm I.D.×30 cm, approximately 10 cm length from end to detection window) were internally coated using Cetek's proprietary methods.
Each sample (i.e., fermentation extract, partially-purified fraction, or compound mixture, or pure compound) to be assayed is prediluted 1:20 or 1:40 in SB containing 0.02% Triton. 1 μl of each prediluted sample is then deposited into a 96-well microtiter plate and mixed with 8 μl of Target Cocktail. These samples can be stored at 4° C. until ready for assay.
When ready for analysis, the plates are transferred to the deck of a Gemini System. To each mixture of sample and target, 1 μl of Competitor Cocktail is added and mixed thoroughly. This reaction mixture is allowed to incubate for 8 minutes on the refrigerated deck of the Gemini System (temperature 8° C.). During incubation, the CE capillary is rinsed for 30 seconds with RB containing 2 mg/ml BSA, and then 60 seconds with RB. At the end of incubation, a small plug of the reaction mixture is then injected into the capillary at low pressure (0.5 psi) for 7 seconds. The loaded capillary is then dipped into reservoirs containing RB and the sample is electrophoresed at 10 kV for 6 minutes at a temperature of 8° C.
The electrophoretic separation produces a graphical profile known as an “electropherogram,” which contains a peak representing the intact complex between Hsp90 and competitor, and a smaller series (typically, a triplet) of peaks representing unbound competitor. […] Dose-response experiments, which evaluate the degree of competitor displacement as a function of sample concentration, are subsequently run in triplicate to validate hits and to quantitate their potencies, which are expressed as IC50 values.
Negative controls are comprised of 0.5% DMSO, and positive controls are comprised of 0.1 μg/ml 17-AAG.

In data set [2] the test system is mice. The settings on record: Takahashi and Bepu, J. Antibiotics 1982; cited from earlier work.
Data set [3] relates to protein synthesis. The settings on record: literature reports; cited from earlier work.
Data set [4] deals with HSP90alpha protein (Homo sapiens, UniProt P07900). The data set is described as follows: Hsp90alpha and BODIPY-Geldanamycin Fluorescent Polarization Binding Assay. Particulars: 5 nM BODIPY GA, 30 nM Hsp90alpha. Here is the method:
Hsp90alpha and BODIPY-Geldanamycin Fluorescent Polarization Binding Assay Materials • HSP90alpha protein (Stressgen SPP-776) and BODIPY Labeled Geldanamycin (GA) was added to assay buffer stock (stored at 4 C): 20 mM Hepes pH 7.3, 50 mM KCl, 20 mM NaMoO4, 0.01% NP40 • Working Assay buffer: assay buffer stock @RT with freshly added 2 mM DTT and 0.1 mg/ml • Bovine Gamma Globulin (Panvera P2045, 5 mg/ml) • Black 96well micro titer plates (Thermo #7205, vwr# 25227-304) Sample Set-up and Controls • Competitive Binding Samples: 5 nM GA and 30 nM Hsp90alpha and inhibitor • Control Samples: buffer only, BODIPY GA only, BODIPY GA plus Hsp90alpha, BODIPY GA plus • Hsp90alpha and unlabeled GA Protocol 1. Prepare working assay buffer with Hsp90alpha protein at a final concentration of 30 nM per well in 100 ul final volume. Add 85 ul of this solution per well to 96 well black micro titer plate. (for 20 ml assay buffer add 400 ul 1 M DTT stk and 400 ul 5 mg/ml BGG stk) (1 mg/ml Hsp90 stock=˜11 uM protein; want 0.03 uM final in 100 ul, so adjust to 0.035 uM in 85 ul which is 1:314 fold dilution into assay buffer=64 ul protein plus 20 ml buffer to dispense 85 ul/well). 2. Add 5 ul of inhibitors @ 20× final desired concentration. For 10 ug/ml start, the overall dilution from 1 mg/ml stocks is 1:100. […] Use Wallac Envision to read FP using protocol: JENs FP FITC Dual in room 4603. (parameters are: mirror module-FITC FP dual, excitation filter-FITC FP 480, emission filters-FITC FP P-pol 535 and FITC FP S-pol 535) Analysis of Results The Envision instrument automatically prepares a calculation based on the readings it obtains from the two measurements. […] By adjusting G to 0.96 or 0.97, the FP measurement calculation will result in a “0” reading for BODIPY GM without Hsp90. […] IC50s will be determined manually from percent polarization values plotted in Microsoft Excel. […]

With `Nc1nc(Cl)nc2c1ncn2C1OC(COS(N)(=O)=O)C(O)C1O` (stereo not shown) [CSA, 2-chloro-5′-sulfamoyladenosine, reference compound], the “HSP90 inhibition / binding (in words)” value in data set [1] was “inhibits HSP90”. In addition, the IC50 in data set [1] (initial structure activity relationship table, read-out: HSP90 CE IC50) came out at 1000 nM. Moreover, the toxicity to mice result in data set [2] was “toxic to mice”. For the same compound, the “inhibition of protein synthesis” value in data set [3] is on record as “inhibit protein synthesis”.

In turn, `Nc1nc(F)nc2c1nc(Cc1cc3c(cc1I)OCO3)n2Cc1cn(CCOS(N)(=O)=O)nn1` [Example 16A, Sulfamic Acid 2-(4-((6-amino-2-fluoro-8-((6-iodobenzo[d][1,3]dioxol-5-yl)methyl)-9H-purin-9-yl)methyl)-1H-1,2,3-triazol-1-yl)ethyl ester] gave an IC50 in data set [4] of 180 nM.

`Nc1nc(F)nc2c1nc(Cc1cc3c(cc1I)OCO3)n2Cc1cn(CCCOS(N)(=O)=O)nn1` [Example 16B, Sulfamic Acid 3-[4-({6-amino-2-fluoro-8-[(6-iodo-1,3-benzodioxol-5-yl)methyl]-9H-purin-9-yl}methyl)-1H-1,2,3-triazol-1-yl]propyl ester]: the IC50 in data set [4] was 390 nM.

Take `Nc1nc(F)nc2c1nc(Cc1cc3c(cc1I)OCO3)n2CC#CCN1CCC(OS(N)(=O)=O)C1` (stereo not shown) [Example 160]: the IC50 in data set [4] is 140 nM.
